Results reported in patent US20060079677A1, “Novel tricyclic azepine derivatives, method for production thereof and pharmaceutical compositions comprising the same” (priority 2003, published 2006).

How the values were obtained:
[1] = test system: A549 non-small-cell human lung carcinoma; assay: In vitro cytotoxicity, Microculture Tetrazolium Assay; type: cell-based; conditions: 96 h, A549, incubated 4 days, inhibition of proliferation by 50%
Method: (§1) Five cell lines were used: • 1 murine leukaemia, L1210, • 1 non-small-cell human lung carcinoma, A549, • 1 human epidermoid carcinoma, KB-3-1, and the corresponding resistant line, KB-A1, whose multi-drug resistance was induced using adriamycin (ADR), • 1 human colon carcinoma, HT29.
(§2) The cells are cultured in RPMI 1640 complete culture medium comprising 10% foetal calf serum, 2 mM glutamine, 50 units/ml of penicillin, 50 μg/ml of streptomycin and 10 mM Hepes, pH 7.4. The cells are distributed on microplates and are exposed to the cytotoxic compounds. The cells are then incubated for 2 days (L1210) or 4 days (A549, KB-A1, KB-3-1, HT29). The number of viable cells is then quantified by a colorimetric assay, the Microculture Tetrazolium Assay (Cancer Res. 1987, 47, 936-942).
(§3) The results are expressed as IC50, the concentration of cytotoxic agent that inhibits the proliferation of the treated cells by 50%.

[2] = test system: HT29 human colon carcinoma; assay: as above; type: cell-based; conditions: HT-29, 96 h, HT29, incubated 4 days, inhibition of proliferation by 50%
Method: as §1, §2, §3

[3] = test system: KB-3-1 human epidermoid carcinoma; assay: as above; type: cell-based; conditions: 96 h, KB-3-1, incubated 4 days, inhibition of proliferation by 50%
Method: as §1, §2, §3

L1210 murine leukaemia = assay: as above; type: cell-based; conditions: Mus musculus, 48 h; L1210, incubated 2 days, inhibition of proliferation by 50%
Method: as §1, §2, §3

[4] = test system: KB-A1 resistant line (multi-drug resistance induced using adriamycin); assay: as above; type: cell-based, human
Method: as §1, §2, §3

L1210 cells = assay: Action on the cell cycle; type: cell-based, murine; conditions: 25 nM, after 21 hours (untreated cells: 20%)
Method: L1210 cells are incubated for 21 hours at 37° C. in the presence of various concentrations of test compounds. The cells are then fixed using 70% ethanol (v/v), washed twice in PBS and incubated for 30 minutes at 20° C. in PBS that contains 100 μg/ml of RNAse and 50 μg/ml of propidium iodide. The results are expressed as a percentage of the cells that have accumulated in the G2+M phases after 21 hours compared with the control.

For `COc1ccc(CCN2C=CC=C3C2=Nc2ccccc2OS3(=O)=O)cc1` [Example 42, 1-[2-(4-Methoxyphenyl)ethyl]-1H-pyrido[3,2-c][1,2,5]benzoxathiazepine 5,5-dioxide], the IC50 [1] was 11.3 nM, the IC50 [2] was 9.8 nM and the IC50 [3] was 15.6 nM. For the same compound, the IC50 (L1210 murine leukaemia) was 8.2 nM, the IC50 ([4]; Homo sapiens, 96 h, KB-A1, incubated 4 days, inhibition of proliferation by 50%) was 13.3 nM and the “recognition by P-glycoprotein (resistant line KB-A1 versus sensitive line KB-3-1)” value ([4]; KB-A1 as sensitive as KB-3-1) was “not recognised by P-glycoprotein”. For the same compound, the “percentage of the cells accumulated in the G2+M phases” value (L1210 cells) was 80-90%.
